Test results reported in PMC5834492, “Antimycobacterial drug discovery using Mycobacteria-infected amoebae identifies anti-infectives and new molecular targets” (Scientific Reports, 2018).

test system: Mtb H37Rv in THP-1; design: method as in Sorrentino et al, 2015; conditions: Mtb H37Rv-infected THP1 cells; ref Sorrentino et al, 2015; cited from earlier work

| Compound | Intracelullar MIC90 in THP-1 [µM] |
| --- | --- |
| Cc1nc2ccccn2c1C(=O)NCc1ccc2c(c1)OCO2 [GSK498315A] | 1.85 |
| COc1cc2ccccc2cc1C(=O)NCc1cccc(-c2ccccc2OC)c1 [GSK695914A] | 5.55 |

same assay, conditions: THP1 / Mtb H37Rv infection assay; ref Sorrentino et al, 2015; cited from earlier work

| Compound | Intracelullar MIC90 in THP-1 [µM] |
| --- | --- |
| N=C(Nc1nc(-c2ccccn2)cc2ccccc12)c1cccc(Cl)c1 [GSK381407A] | 0.61 |
| Cc1nc2ccccn2c1C(=O)NCc1ccc2c(c1)OCO2 [GSK498315A] | 1.85 |
| COc1cc2ccccc2cc1C(=O)NCc1cccc(-c2ccccc2OC)c1 [GSK695914A] | 5.55 |
| COc1ccc2nc(C)cc(OCC(=O)Nc3cc(C)cc(C)c3)c2c1 [GSK749336A] | 5.55 |
| COc1ccc(CCNC(=O)c2c(C)nc3ccccn23)cc1 [GSK762874A] | 5.55 |
| Cc1cccc(Cn2ccc(NC(=O)c3ccc4c(c3)OCO4)n2)c1 [GSK798463A] | 5.55 |
| c1csc(Cc2nn3c(-c4[nH]nc5c4CCC5)nnc3s2)c1 [GSK810037A] | 1.85 |

same assay, conditions: ratio; ref Sorrentino et al, 2015; cited from earlier work

| Compound | Extracellular MIC90/ Inracellular MIC90 |
| --- | --- |
| N=C(Nc1nc(-c2ccccn2)cc2ccccc12)c1cccc(Cl)c1 [GSK381407A] | 7.38 |
| Cc1nc2ccccn2c1C(=O)NCc1ccc2c(c1)OCO2 [GSK498315A] | 1.57 |
| COc1cc2ccccc2cc1C(=O)NCc1cccc(-c2ccccc2OC)c1 [GSK695914A] | 0.4 |
| COc1ccc2nc(C)cc(OCC(=O)Nc3cc(C)cc(C)c3)c2c1 [GSK749336A] | 0.05 |
| COc1ccc(CCNC(=O)c2c(C)nc3ccccn23)cc1 [GSK762874A] | 0.56 |
| Cc1cccc(Cn2ccc(NC(=O)c3ccc4c(c3)OCO4)n2)c1 [GSK798463A] | 0.67 |
| c1csc(Cc2nn3c(-c4[nH]nc5c4CCC5)nnc3s2)c1 [GSK810037A] | 1.3 |

test system: Mtb H37Rv; design: method as in Sorrentino et al, 2015; conditions: ref Sorrentino et al, 2015; cited from earlier work

| Compound | Extracellular MIC90 [µM] |
| --- | --- |
| N=C(Nc1nc(-c2ccccn2)cc2ccccc12)c1cccc(Cl)c1 [GSK381407A] | 4.5 |
| Cc1nc2ccccn2c1C(=O)NCc1ccc2c(c1)OCO2 [GSK498315A] | 2.9 |
| COc1cc2ccccc2cc1C(=O)NCc1cccc(-c2ccccc2OC)c1 [GSK695914A] | 2.2 |
| COc1ccc2nc(C)cc(OCC(=O)Nc3cc(C)cc(C)c3)c2c1 [GSK749336A] | 0.3 |
| COc1ccc(CCNC(=O)c2c(C)nc3ccccn23)cc1 [GSK762874A] | 3.1 |
| Cc1cccc(Cn2ccc(NC(=O)c3ccc4c(c3)OCO4)n2)c1 [GSK798463A] | 3.7 |
| c1csc(Cc2nn3c(-c4[nH]nc5c4CCC5)nnc3s2)c1 [GSK810037A] | 2.4 |

test system: D. discoideum GFP-ABD; conditions: 10 µM

| Compound | D. discoideum GFP-ABD normalised growth, control=1.00, mean |
| --- | --- |
| N=C(Nc1nc(-c2ccccn2)cc2ccccc12)c1cccc(Cl)c1 [GSK381407A] | 0.98 |
| Cc1nc2ccccn2c1C(=O)NCc1ccc2c(c1)OCO2 [GSK498315A] | 0.81 |
| COc1cc2ccccc2cc1C(=O)NCc1cccc(-c2ccccc2OC)c1 [GSK695914A] | 0.98 |
| COc1ccc2nc(C)cc(OCC(=O)Nc3cc(C)cc(C)c3)c2c1 [GSK749336A] | 0.67 |
| COc1ccc(CCNC(=O)c2c(C)nc3ccccn23)cc1 [GSK762874A] | 1.04 |
| Cc1cccc(Cn2ccc(NC(=O)c3ccc4c(c3)OCO4)n2)c1 [GSK798463A] | 0.66 |
| c1csc(Cc2nn3c(-c4[nH]nc5c4CCC5)nnc3s2)c1 [GSK810037A] | 0.76 |

test system: M. marinum in A. castellanii; format: cell-based, Mycobacterium marinum; conditions: 10 µM

| Compound | A. castellanii / M. marinum normalised growth, control=1.00, mean | Hits A. castellanii/M. marinum assay True/False |
| --- | --- | --- |
| N=C(Nc1nc(-c2ccccn2)cc2ccccc12)c1cccc(Cl)c1 [GSK381407A] | 1.06 | – |
| Cc1nc2ccccn2c1C(=O)NCc1ccc2c(c1)OCO2 [GSK498315A] | 0.56 | FALSE |
| COc1cc2ccccc2cc1C(=O)NCc1cccc(-c2ccccc2OC)c1 [GSK695914A] | 0.63 | FALSE |
| COc1ccc2nc(C)cc(OCC(=O)Nc3cc(C)cc(C)c3)c2c1 [GSK749336A] | 0.58 | – |
| COc1ccc(CCNC(=O)c2c(C)nc3ccccn23)cc1 [GSK762874A] | 0.70 | – |
| Cc1cccc(Cn2ccc(NC(=O)c3ccc4c(c3)OCO4)n2)c1 [GSK798463A] | 0.57 | – |
| c1csc(Cc2nn3c(-c4[nH]nc5c4CCC5)nnc3s2)c1 [GSK810037A] | 1.03 | – |

test system: M. marinum GFP; format: cell-based, Mycobacterium marinum; conditions: 10 µM; antibiotic assay

| Compound | M. marinum GFP normalised growth, control=1.00, mean |
| --- | --- |
| N=C(Nc1nc(-c2ccccn2)cc2ccccc12)c1cccc(Cl)c1 [GSK381407A] | 7.92e-5 |
| Cc1nc2ccccn2c1C(=O)NCc1ccc2c(c1)OCO2 [GSK498315A] | 0.0644 |
| COc1cc2ccccc2cc1C(=O)NCc1cccc(-c2ccccc2OC)c1 [GSK695914A] | 0.0549 |
| COc1ccc2nc(C)cc(OCC(=O)Nc3cc(C)cc(C)c3)c2c1 [GSK749336A] | 0.14 |
| COc1ccc(CCNC(=O)c2c(C)nc3ccccn23)cc1 [GSK762874A] | 0.08 |
| Cc1cccc(Cn2ccc(NC(=O)c3ccc4c(c3)OCO4)n2)c1 [GSK798463A] | 0.0323 |
| c1csc(Cc2nn3c(-c4[nH]nc5c4CCC5)nnc3s2)c1 [GSK810037A] | 0.73 |

test system: M. marinum in BV2 microglial cells; format: cell-based, Mycobacterium marinum; conditions: not given

| Compound | IC50 [µM] |
| --- | --- |
| N=C(Nc1nc(-c2ccccn2)cc2ccccc12)c1cccc(Cl)c1 [GSK381407A] | 7.71 |
| Cc1nc2ccccn2c1C(=O)NCc1ccc2c(c1)OCO2 [GSK498315A] | 5.95 |
| COc1cc2ccccc2cc1C(=O)NCc1cccc(-c2ccccc2OC)c1 [GSK695914A] | 7.82 |
| COc1ccc2nc(C)cc(OCC(=O)Nc3cc(C)cc(C)c3)c2c1 [GSK749336A] | 7.32 |
| COc1ccc(CCNC(=O)c2c(C)nc3ccccn23)cc1 [GSK762874A] | 3.64 |
| Cc1cccc(Cn2ccc(NC(=O)c3ccc4c(c3)OCO4)n2)c1 [GSK798463A] | 5.01 |
| c1csc(Cc2nn3c(-c4[nH]nc5c4CCC5)nnc3s2)c1 [GSK810037A] | 4.8 |

same assay, conditions: 10 µM

| Compound | BV2 / M. marinum normalised growth, control=1.00, mean | hit in BV2/M. marinum assay True/False |
| --- | --- | --- |
| N=C(Nc1nc(-c2ccccn2)cc2ccccc12)c1cccc(Cl)c1 [GSK381407A] | 0.65 | – |
| Cc1nc2ccccn2c1C(=O)NCc1ccc2c(c1)OCO2 [GSK498315A] | 0.47 | TRUE |
| COc1cc2ccccc2cc1C(=O)NCc1cccc(-c2ccccc2OC)c1 [GSK695914A] | 0.48 | TRUE |
| COc1ccc2nc(C)cc(OCC(=O)Nc3cc(C)cc(C)c3)c2c1 [GSK749336A] | 0.63 | – |
| COc1ccc(CCNC(=O)c2c(C)nc3ccccn23)cc1 [GSK762874A] | 0.59 | – |
| Cc1cccc(Cn2ccc(NC(=O)c3ccc4c(c3)OCO4)n2)c1 [GSK798463A] | 0.80 | – |
| c1csc(Cc2nn3c(-c4[nH]nc5c4CCC5)nnc3s2)c1 [GSK810037A] | 0.81 | – |

test system: M. marinum luxCDABE; format: cell-based, Mycobacterium marinum; conditions: 10 µM

| Compound | M. marinum luxCDABE normalised growth, control=1.00, mean | M. marinum luxCDABE normalised growth, control = 1.00, mean |
| --- | --- | --- |
| N=C(Nc1nc(-c2ccccn2)cc2ccccc12)c1cccc(Cl)c1 [GSK381407A] | 0.00 | – |
| Cc1nc2ccccn2c1C(=O)NCc1ccc2c(c1)OCO2 [GSK498315A] | 0.00 | 0,00 |
| COc1cc2ccccc2cc1C(=O)NCc1cccc(-c2ccccc2OC)c1 [GSK695914A] | 0.00 | 0,00 |
| COc1ccc2nc(C)cc(OCC(=O)Nc3cc(C)cc(C)c3)c2c1 [GSK749336A] | 0.00 | – |
| COc1ccc(CCNC(=O)c2c(C)nc3ccccn23)cc1 [GSK762874A] | 0.00 | – |
| Cc1cccc(Cn2ccc(NC(=O)c3ccc4c(c3)OCO4)n2)c1 [GSK798463A] | 0.00 | – |
| c1csc(Cc2nn3c(-c4[nH]nc5c4CCC5)nnc3s2)c1 [GSK810037A] | 0.11 | – |
